Assay results published in ChEMBL document CHEMBL1145626, “Novel echinocandin antifungals. Part 2: Optimization of the side chain of the natural product FR901379. Discovery of micafungin” (Bioorg Med Chem Lett, 2008).
*1 amine or outer side, *2 acyl side, *3 side chain or, on linkers, in order; H or OH if unused. Where a SMILES comes first, the peptide text is derived from it. Bridges are numbered along the chain shown (N, C = ends). [ ]: non-standard residue; d: D form. The star is where a group is joined. ξ: configuration not given here. hTyr(3S-OH,4S-OH,3'-OSO3H) = N[C@H](C(=O)O)[C@H](O)[C@@H](O)c1ccc(O)c(OS(=O)(=O)O)c1; Orn(4R-OH,5R-OH) = O=C([C@H](C[C@@H](O)[C@@H](O)N[*:3])N[*:1])[*:2]; Orn(4R-OH,5S-OH) = O=C([C@H](C[C@@H](O)[C@H](O)N[*:3])N[*:1])[*:2]; X4 = CCCCCCOc1ccc(-c2nnc(-c3ccc(C(=O)*)cc3)s2)cc1; X6 = CCCCCCCOc1ccc(N2CCN(c3ccc(C(=O)*)cn3)CC2)cc1; Pro(3S-OH,4S-Me) = C[C@H]1CN[C@H](C(=O)O)[C@H]1O; X1 = CCCCCCOc1ccc(N2CCN(c3ccc(C(=O)*)cc3)CC2)cc1; X2 = CCCCCOc1ccc(-c2cc(-c3ccc(C(=O)*)cc3)no2)cc1; X3 = CCCCOc1ccc(-c2ccc(-c3ccc(C(=O)*)cc3)cc2)cc1; X5 = CCCCCOc1ccc(-c2cc(-c3ccc(C(=O)*)cc3)on2)cc1; X7 = CCCCCCOc1ccc(C2CCN(c3ccc(C(=O)*)cc3)CC2)cc1; X8 = CCCCCOc1ccc(-c2nc(-c3ccc(C(=O)*)cc3)cs2)cc1; Benzoyl(4-octyloxy) = CCCCCCCCOc1ccc(C(=O)*)cc1; Gln(3R-OH) = NC(=O)C[C@@H](O)[C@H](N)C(=O)O; Hyp = O=C(O)[C@@H]1C[C@@H](O)CN1; ξThr(3R) = C[C@@H](O)C(N)C(=O)O

Tests used:
[1] = test system: Aspergillus fumigatus; test: Antifungal activity against Aspergillus fumigatus FP1305 in mouse serum; type: functional
[2] = Hemolytic activity in human erythrocytes at 1 mg/ml; type: ADME, cell-based, Erythrocyte; conditions: read-out: Activity
[3] = AUC (0 to infinity) in mouse at 5 mg/kg, iv after 30 mins; type: ADME, organism-based; design: time infinity, dose 5 mg/kg, route intravenous; conditions: plasma
[4] = test system: Aspergillus fumigatus; test: Antifungal activity against Aspergillus fumigatus FP1305 infected in mouse
[5] = test system: Candida albicans; test: Antifungal activity against Candida albicans FP633 infected in mouse; type: functional
[6] = Half life in mouse at 5 mg/kg, iv after 30 mins; type: ADME, organism-based; design: dose 5 mg/kg, route intravenous; conditions: in vivo
[7] = test system: Candida albicans; test: Antifungal activity against Candida albicans FP633 in mouse serum; type: functional
[8] = Concentration in mouse plasma at 5 mg/kg, iv after 30 mins; type: ADME, organism-based; design: dose 5 mg/kg, route intravenous
[9] = test system: Aspergillus fumigatus; test: Antifungal activity against Aspergillus fumigatus FP1305 in RPMI media; type: functional
[10] = test system: Candida albicans; test: Antifungal activity against Candida albicans FP633 in RPMI media; type: functional

| SMILES | MIC [1] | MIC [7] | IC50 [9] | MIC [10] | hemolysis at 1 mg/ml [2] | AUC(0-inf) [3] | ED50 [4] | ED50 [5] | half-life [6] | concentration at 0.5 h [8] |
| --- | --- | --- | --- | --- | --- | --- | --- | --- | --- | --- |
| CCCCCOc1ccc(-c2cc(-c3ccc(C(=O)N[C@H]4C[C@@H](O)[C@@H](O)NC(=O)[C@@H]5[C@@H](O)[C@@H](C)CN5C(=O)[C@H]([C@H](O)CC(N)=O)NC(=O)[C@H]([C@H](O)[C@@H](O)c5ccc(O)c(OS(=O)(=O)O)c5)NC(=O)[C@@H]5C[C@@H](O)CN5C(=O)[C@H]([C@@H](C)O)NC4=O)cc3)no2)cc1 (X2-[Orn(4R-OH,5R-OH)]T[Hyp][hTyr(3S-OH,4S-OH,3'-OSO3H)][Gln(3R-OH)][Pro(3S-OH,4S-Me)]; lactam 1-C) |  |  |  |  | < 20% |  |  |  |  |  |
| CCCCCOc1ccc(-c2cc(-c3ccc(C(=O)N[C@H]4C[C@@H](O)[C@@H](O)NC(=O)[C@@H]5[C@@H](O)[C@@H](C)CN5C(=O)[C@H]([C@H](O)CC(N)=O)NC(=O)[C@H]([C@H](O)[C@@H](O)c5ccc(O)c(OS(=O)(=O)[O-])c5)NC(=O)[C@@H]5C[C@@H](O)CN5C(=O)C([C@@H](C)O)NC4=O)cc3)no2)cc1.[Na+] (stereo partly drawn) (X2-[Orn(4R-OH,5R-OH)][ξThr(3R)][Hyp][hTyr(3S-OH,4S-OH,3'-OSO3H)][Gln(3R-OH)][Pro(3S-OH,4S-Me)]; lactam 1-C) | 1.56 µg/mL | 1.56 µg/mL | 0.002 µg/mL | 0.05 µg/mL |  | 78 µg·h/mL | 0.228 mg/kg | 0.325 mg/kg | 5.1 h | 10100 ng/mL |
| CCCCOc1ccc(-c2ccc(-c3ccc(C(=O)N[C@H]4C[C@@H](O)[C@@H](O)NC(=O)[C@@H]5[C@@H](O)[C@@H](C)CN5C(=O)[C@H]([C@H](O)CC(N)=O)NC(=O)[C@H]([C@H](O)[C@@H](O)c5ccc(O)c(OS(=O)(=O)[O-])c5)NC(=O)[C@@H]5C[C@@H](O)CN5C(=O)[C@H]([C@@H](C)O)NC4=O)cc3)cc2)cc1.[Na+] (X3-[Orn(4R-OH,5R-OH)]T[Hyp][hTyr(3S-OH,4S-OH,3'-OSO3H)][Gln(3R-OH)][Pro(3S-OH,4S-Me)]; lactam 1-C) | 1.56 µg/mL | 1.56 µg/mL | 0.002 µg/mL | 0.025 µg/mL | 79% |  |  | 0.447 mg/kg |  |  |
| CCCCCOc1ccc(-c2cc(-c3ccc(C(=O)N[C@H]4C[C@@H](O)[C@@H](O)NC(=O)[C@@H]5[C@@H](O)[C@@H](C)CN5C(=O)[C@H]([C@H](O)CC(N)=O)NC(=O)[C@H]([C@H](O)[C@@H](O)c5ccc(O)c(OS(=O)(=O)[O-])c5)NC(=O)[C@@H]5C[C@@H](O)CN5C(=O)C([C@@H](C)O)NC4=O)cc3)on2)cc1.[Na+] (stereo partly drawn) (X5-[Orn(4R-OH,5R-OH)][ξThr(3R)][Hyp][hTyr(3S-OH,4S-OH,3'-OSO3H)][Gln(3R-OH)][Pro(3S-OH,4S-Me)]; lactam 1-C) | 0.78 µg/mL | 1.56 µg/mL | 0.001 µg/mL | 0.05 µg/mL | 38% |  |  |  |  |  |
| CCCCCOc1ccc(-c2nc(-c3ccc(C(=O)N[C@H]4C[C@@H](O)[C@@H](O)NC(=O)[C@@H]5[C@@H](O)[C@@H](C)CN5C(=O)[C@H]([C@H](O)CC(N)=O)NC(=O)[C@H]([C@H](O)[C@@H](O)c5ccc(O)c(OS(=O)(=O)[O-])c5)NC(=O)[C@@H]5C[C@@H](O)CN5C(=O)C([C@@H](C)O)NC4=O)cc3)cs2)cc1.[Na+] (stereo partly drawn) (X8-[Orn(4R-OH,5R-OH)][ξThr(3R)][Hyp][hTyr(3S-OH,4S-OH,3'-OSO3H)][Gln(3R-OH)][Pro(3S-OH,4S-Me)]; lactam 1-C) | 3.13 µg/mL | 6.25 µg/mL |  | 0.1 µg/mL | < 20% |  |  |  |  |  |
| CCCCCCCCOc1ccc(C(=O)N[C@H]2C[C@@H](O)[C@H](O)NC(=O)[C@@H]3[C@@H](O)[C@@H](C)CN3C(=O)[C@H]([C@H](O)CC(N)=O)NC(=O)[C@H]([C@H](O)[C@@H](O)c3ccc(O)c(OS(=O)(=O)[O-])c3)NC(=O)[C@@H]3C[C@@H](O)CN3C(=O)[C@H]([C@@H](C)O)NC2=O)cc1.[Na+] [FR-131535] ({Benzoyl(4-octyloxy)}-[Orn(4R-OH,5S-OH)]T[Hyp][hTyr(3S-OH,4S-OH,3'-OSO3H)][Gln(3R-OH)][Pro(3S-OH,4S-Me)]; lactam 1-C) | 12.5 µg/mL | 25 µg/mL |  |  |  | 109 µg·h/mL |  |  | 2 h | 30300 ng/mL |

More lines, main results first:

| MIC [1] | MIC [7] | IC50 [9] | MIC [10] | SMILES | hemolysis at 1 mg/ml [2] | AUC(0-inf) [3] | ED50 [4] | ED50 [5] | half-life [6] | concentration at 0.5 h [8] |
| --- | --- | --- | --- | --- | --- | --- | --- | --- | --- | --- |
| 1.56 µg/mL | 3.13 µg/mL | 0.002 µg/mL | 0.1 µg/mL | CCCCCCOc1ccc(N2CCN(c3ccc(C(=O)N[C@H]4C[C@@H](O)[C@@H](O)NC(=O)[C@@H]5[C@@H](O)[C@@H](C)CN5C(=O)[C@H]([C@H](O)CC(N)=O)NC(=O)[C@H]([C@H](O)[C@@H](O)c5ccc(O)c(OS(=O)(=O)[O-])c5)NC(=O)[C@@H]5C[C@@H](O)CN5C(=O)C([C@@H](C)O)NC4=O)cc3)CC2)cc1.[Na+] (stereo partly drawn) (X1-[Orn(4R-OH,5R-OH)][ξThr(3R)][Hyp][hTyr(3S-OH,4S-OH,3'-OSO3H)][Gln(3R-OH)][Pro(3S-OH,4S-Me)]; lactam 1-C) | < 20% | 105 µg·h/mL | 0.531 mg/kg | 0.395 mg/kg | 3.5 h | 18800 ng/mL |
| 0.78 µg/mL | 0.78 µg/mL | 0.002 µg/mL | 0.05 µg/mL | CCCCCCOc1ccc(-c2nnc(-c3ccc(C(=O)N[C@H]4C[C@@H](O)[C@@H](O)NC(=O)[C@@H]5[C@@H](O)[C@@H](C)CN5C(=O)[C@H]([C@H](O)CC(N)=O)NC(=O)[C@H]([C@H](O)[C@@H](O)c5ccc(O)c(OS(=O)(=O)[O-])c5)NC(=O)[C@@H]5C[C@@H](O)CN5C(=O)C([C@@H](C)O)NC4=O)cc3)s2)cc1.[Na+] (stereo partly drawn) (X4-[Orn(4R-OH,5R-OH)][ξThr(3R)][Hyp][hTyr(3S-OH,4S-OH,3'-OSO3H)][Gln(3R-OH)][Pro(3S-OH,4S-Me)]; lactam 1-C) | 42% |  |  |  |  |  |
| 6.25 µg/mL | 3.13 µg/mL | 0.005 µg/mL | 0.2 µg/mL | CCCCCCCOc1ccc(N2CCN(c3ccc(C(=O)N[C@H]4C[C@@H](O)[C@@H](O)NC(=O)[C@@H]5[C@@H](O)[C@@H](C)CN5C(=O)[C@H]([C@H](O)CC(N)=O)NC(=O)[C@H]([C@H](O)[C@@H](O)c5ccc(O)c(OS(=O)(=O)[O-])c5)NC(=O)[C@@H]5C[C@@H](O)CN5C(=O)C([C@@H](C)O)NC4=O)cn3)CC2)cc1.[Na+] (stereo partly drawn) (X6-[Orn(4R-OH,5R-OH)][ξThr(3R)][Hyp][hTyr(3S-OH,4S-OH,3'-OSO3H)][Gln(3R-OH)][Pro(3S-OH,4S-Me)]; lactam 1-C) | < 20% |  |  |  |  |  |
| 1.56 µg/mL | 1.56 µg/mL | 0.003 µg/mL | 0.05 µg/mL | CCCCCCOc1ccc(C2CCN(c3ccc(C(=O)N[C@H]4C[C@@H](O)[C@@H](O)NC(=O)[C@@H]5[C@@H](O)[C@@H](C)CN5C(=O)[C@H]([C@H](O)CC(N)=O)NC(=O)[C@H]([C@H](O)[C@@H](O)c5ccc(O)c(OS(=O)(=O)[O-])c5)NC(=O)[C@@H]5C[C@@H](O)CN5C(=O)C([C@@H](C)O)NC4=O)cc3)CC2)cc1.[Na+] (stereo partly drawn) (X7-[Orn(4R-OH,5R-OH)][ξThr(3R)][Hyp][hTyr(3S-OH,4S-OH,3'-OSO3H)][Gln(3R-OH)][Pro(3S-OH,4S-Me)]; lactam 1-C) | 33% |  |  |  |  |  |
